According to patent publication US10722515B2, “Dual CLK/CDK1 inhibitors for cancer treatment” (SRI INTERNATIONAL, priority 2016, dated 2020):
Like-named read-outs stand apart in the source and are kept apart here.

Columns and labels:
[1] = tested on: SK-MEL-2/Luc-MDM2 cells (MDM2-Luc exon-skipping reporter); assay: cell-based MDM2-Luc exon-skipping reporter assay; details: for activity in the MDM2-Luc assay: at 10 μM; for MDM2/Luc: luciferase activation vs DMSO control, average of three experiments; for MDM2-Luc activity: result in words, no concentration stated
[2] = tested on: MDM2 alternate splicing in Rh-18 cells; assay: Rh-18 MDM2 RT-PCR gel-based assay (orthogonal secondary assay); type: cell-based; details: 10 μM, 8 h
Protocol: These hits were then subjected to a confirmatory assay in the Rh-18 MDM2 RT-PCR gel-based assay at a concentration of 10 μM.
Referring to FIG. 6, cells were exposed to 0.5% DMSO, 0.2 μM sudemycin D6 or […] CGP-74514A for 8 h. Total RNA was extracted by RNeasy Mini Kit (Qiagen). High capacity RNA-to-cDNA kit (Life technologies) was used to convert the RNA to cDNA.
Referring to FIG. 7, cells were exposed to 0.5% DMSO (lane 1), 1 μM sudemycin D6 (lane 2), 10 μM Compound 14 (lane 3), and 10 μM Compound 15 (lane 4) for 8 h. The total RNA was extracted by RNeasy Mini Kit (Qiagen). High capacity RNA-to-cDNA kit (Life technologies) was used to convert the RNA to cDNA. […] Ubiquitin transcripts (165 bp) in the same cells were used as a control (Fan et al. (2011) ACS Chem. Biol. 6: 582-9).

CLK1(h) = target: T1, CLK1(h) (Homo sapiens, UniProt P49759); assay: radiometric protein kinase assay, CLK1; type: biochemical; details: enzyme inhibition, radiometric, ATP 10 μM; read-out: IC50 (nM) CLK1
T1 construct: purchased Eurofins, Dundee, Scotland
Protocol: (§1) Enzymatic biochemical activities were evaluated in radiometric protein kinase assays (Eurofins, Dundee, Scotland). Kinases are incubated with buffer, substrate and [γ-^33P]-ATP (specific activity approx. 500 cpm/pmol, concentration as required). The reaction is initiated by the addition of the MgATP mix. After incubation for 40 minutes at room temperature, the reaction is stopped by the addition of 3% phosphoric acid solution. 10 μL of the reaction is then spotted onto a P30 filtermat and washed three times for 5 minutes in 75 mM phosphoric acid and once in methanol prior to drying and scintillation counting.
(§2) All compounds are prepared to 50× final assay concentration in 100% DMSO. Positive control wells contain all components of the reaction with 2% DMSO. Blank wells contain all components of the reaction, with a reference inhibitor replacing the compound of interest. Each kinase is assigned a standard assay concentration of ATP within 20 μM of its apparent KM. Compounds were screened at 1 μM in duplicate or tested at 10 concentrations at half log dilution starting from 10 μM in singlicate. Dose response curves were fitted with four parameter logistic curve to obtain IC50 values. The average coefficient of variation (CV) of the conducted assay is 4.4%.

CLK2(h) = target: T2, CLK2(h) (Homo sapiens, UniProt P49760); assay: radiometric protein kinase assay, CLK2; type: biochemical; details: enzyme inhibition, ATP 10 μM
T2 construct: purchased Eurofins, Dundee, Scotland
Protocol: as §1, §2

CLK3(h) = target: T3, CLK3(h) (Homo sapiens, UniProt P49761); assay: radiometric protein kinase assay, CLK3; type: biochemical
T3 construct: purchased Eurofins, Dundee, Scotland
Protocol: as §1, §2

CLK4(h) = target: T4, CLK4(h) (Homo sapiens, UniProt Q9HAZ1); assay: radiometric protein kinase assay, CLK4; type: biochemical; details: enzyme inhibition, ATP 10 μM
T4 construct: purchased Eurofins, Dundee, Scotland
Protocol: as §1, §2

CDK1/cyclinB(h) = target: T5, CDK1/cyclinB(h) (Homo sapiens, UniProt P06493); assay: radiometric protein kinase assay, CDK1; type: biochemical; details: enzyme inhibition, ATP 45 μM
T5 construct: purchased Eurofins, Dundee, Scotland
Protocol: as §1, §2

CDK4/cyclinD3(h) = target: T6, CDK4/cyclinD3(h) (Homo sapiens, UniProt P11802); assay: radiometric protein kinase assay, CDK4; type: biochemical; details: enzyme inhibition, ATP 20 μM
T6 construct: purchased Eurofins, Dundee, Scotland
Protocol: as §1, §2

CDK6/cyclinD3(h) = target: T7, CDK6/cyclinD3(h) (Homo sapiens, UniProt Q00534); assay: radiometric protein kinase assay, CDK6; type: biochemical; details: enzyme inhibition, ATP 20 μM
T7 construct: purchased Eurofins, Dundee, Scotland
Protocol: as §1, §2

[3] = enzyme inhibition, radiometric, ATP 90 μM, read-out: IC50 (nM) CLK3

T4 sequence (Q9HAZ1 whole entry): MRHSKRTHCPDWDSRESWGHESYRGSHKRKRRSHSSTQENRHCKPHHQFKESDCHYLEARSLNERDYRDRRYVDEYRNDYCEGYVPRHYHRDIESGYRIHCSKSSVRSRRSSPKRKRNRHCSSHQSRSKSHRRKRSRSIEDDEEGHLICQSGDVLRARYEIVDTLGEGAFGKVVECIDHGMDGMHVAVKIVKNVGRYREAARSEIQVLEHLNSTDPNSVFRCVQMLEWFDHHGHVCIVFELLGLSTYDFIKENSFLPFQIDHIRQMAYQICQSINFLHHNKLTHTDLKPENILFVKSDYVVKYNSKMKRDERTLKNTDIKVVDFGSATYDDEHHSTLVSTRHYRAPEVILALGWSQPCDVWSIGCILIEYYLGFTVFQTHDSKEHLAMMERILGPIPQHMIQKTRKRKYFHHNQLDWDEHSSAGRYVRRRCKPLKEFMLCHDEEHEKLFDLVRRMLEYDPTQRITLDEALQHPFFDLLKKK
T3 sequence (P49761 whole entry): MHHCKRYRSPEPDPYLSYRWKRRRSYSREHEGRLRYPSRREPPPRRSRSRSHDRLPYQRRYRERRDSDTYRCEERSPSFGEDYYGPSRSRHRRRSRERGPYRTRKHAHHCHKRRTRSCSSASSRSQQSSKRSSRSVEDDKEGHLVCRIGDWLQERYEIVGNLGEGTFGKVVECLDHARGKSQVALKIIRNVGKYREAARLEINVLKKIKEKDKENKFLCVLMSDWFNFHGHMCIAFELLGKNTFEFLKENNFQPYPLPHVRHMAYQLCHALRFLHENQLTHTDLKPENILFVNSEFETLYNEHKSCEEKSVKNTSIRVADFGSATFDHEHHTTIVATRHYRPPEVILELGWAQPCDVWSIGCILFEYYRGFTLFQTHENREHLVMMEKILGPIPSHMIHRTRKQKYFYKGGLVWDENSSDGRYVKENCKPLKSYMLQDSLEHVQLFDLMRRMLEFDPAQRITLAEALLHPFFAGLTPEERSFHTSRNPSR
T5 sequence (P06493 whole entry): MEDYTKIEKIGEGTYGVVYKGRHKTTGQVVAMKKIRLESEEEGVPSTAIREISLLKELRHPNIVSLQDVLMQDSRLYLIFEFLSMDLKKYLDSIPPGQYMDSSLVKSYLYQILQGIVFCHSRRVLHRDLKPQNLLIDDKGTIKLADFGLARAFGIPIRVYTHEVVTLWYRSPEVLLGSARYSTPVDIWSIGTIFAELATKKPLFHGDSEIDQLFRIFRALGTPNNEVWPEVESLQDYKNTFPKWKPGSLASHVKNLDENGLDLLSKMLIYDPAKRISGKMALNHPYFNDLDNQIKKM
T5 sequence (P14635 whole entry partner): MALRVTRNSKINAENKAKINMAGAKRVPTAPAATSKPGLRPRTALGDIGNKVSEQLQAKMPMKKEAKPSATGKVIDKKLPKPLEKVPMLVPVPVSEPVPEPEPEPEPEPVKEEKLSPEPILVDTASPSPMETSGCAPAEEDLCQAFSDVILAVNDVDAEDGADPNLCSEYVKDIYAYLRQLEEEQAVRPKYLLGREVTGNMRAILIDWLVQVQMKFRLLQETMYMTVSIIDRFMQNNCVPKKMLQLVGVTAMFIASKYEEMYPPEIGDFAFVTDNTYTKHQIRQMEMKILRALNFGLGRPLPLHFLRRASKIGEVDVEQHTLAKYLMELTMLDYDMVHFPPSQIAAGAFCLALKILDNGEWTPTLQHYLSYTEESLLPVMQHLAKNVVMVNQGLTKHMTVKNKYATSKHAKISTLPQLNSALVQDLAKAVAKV
T6 sequence (P11802 whole entry): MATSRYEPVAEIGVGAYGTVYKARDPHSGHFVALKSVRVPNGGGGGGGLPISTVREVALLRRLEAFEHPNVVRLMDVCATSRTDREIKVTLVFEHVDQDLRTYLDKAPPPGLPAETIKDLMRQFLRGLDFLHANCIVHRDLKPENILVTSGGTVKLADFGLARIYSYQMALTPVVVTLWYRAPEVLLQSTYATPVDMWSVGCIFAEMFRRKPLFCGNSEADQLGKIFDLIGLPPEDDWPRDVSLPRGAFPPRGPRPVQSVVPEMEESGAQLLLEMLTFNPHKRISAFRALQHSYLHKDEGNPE
T6 sequence (P30281 whole entry partner): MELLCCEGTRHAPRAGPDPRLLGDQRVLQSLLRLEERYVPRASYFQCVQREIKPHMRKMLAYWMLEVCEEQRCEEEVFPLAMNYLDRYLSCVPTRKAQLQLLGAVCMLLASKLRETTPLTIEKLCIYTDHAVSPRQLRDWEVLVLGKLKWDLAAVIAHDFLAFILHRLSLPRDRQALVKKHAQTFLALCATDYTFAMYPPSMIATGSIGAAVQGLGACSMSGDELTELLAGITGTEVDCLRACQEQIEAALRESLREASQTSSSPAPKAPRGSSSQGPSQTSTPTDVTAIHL
T1 sequence (P49759 whole entry): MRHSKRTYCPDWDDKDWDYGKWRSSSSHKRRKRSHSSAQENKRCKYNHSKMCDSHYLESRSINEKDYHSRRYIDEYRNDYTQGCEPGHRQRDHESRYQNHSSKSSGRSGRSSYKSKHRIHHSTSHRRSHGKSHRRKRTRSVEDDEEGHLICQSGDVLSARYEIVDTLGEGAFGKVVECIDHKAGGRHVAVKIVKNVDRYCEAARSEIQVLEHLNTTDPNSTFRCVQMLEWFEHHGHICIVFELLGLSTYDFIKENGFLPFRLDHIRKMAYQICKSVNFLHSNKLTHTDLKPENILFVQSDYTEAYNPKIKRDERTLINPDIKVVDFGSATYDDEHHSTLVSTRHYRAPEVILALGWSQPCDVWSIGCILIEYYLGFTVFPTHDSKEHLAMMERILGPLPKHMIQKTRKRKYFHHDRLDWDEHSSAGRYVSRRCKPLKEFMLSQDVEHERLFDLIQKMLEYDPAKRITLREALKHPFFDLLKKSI
T2 sequence (P49760 whole entry): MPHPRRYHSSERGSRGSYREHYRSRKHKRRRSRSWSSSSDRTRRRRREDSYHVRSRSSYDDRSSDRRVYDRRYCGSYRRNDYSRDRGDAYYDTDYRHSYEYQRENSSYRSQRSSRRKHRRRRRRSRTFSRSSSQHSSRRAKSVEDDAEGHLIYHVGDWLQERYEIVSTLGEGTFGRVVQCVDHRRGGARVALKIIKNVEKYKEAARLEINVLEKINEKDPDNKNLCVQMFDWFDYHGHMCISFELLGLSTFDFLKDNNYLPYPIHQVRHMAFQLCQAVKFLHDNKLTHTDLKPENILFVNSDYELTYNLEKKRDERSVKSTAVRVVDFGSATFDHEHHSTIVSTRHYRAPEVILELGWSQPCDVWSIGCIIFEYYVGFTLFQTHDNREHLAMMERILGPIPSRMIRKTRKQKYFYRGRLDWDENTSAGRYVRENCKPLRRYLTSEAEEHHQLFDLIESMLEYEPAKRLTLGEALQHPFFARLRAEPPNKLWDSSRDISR
T7 sequence (Q00534 whole entry): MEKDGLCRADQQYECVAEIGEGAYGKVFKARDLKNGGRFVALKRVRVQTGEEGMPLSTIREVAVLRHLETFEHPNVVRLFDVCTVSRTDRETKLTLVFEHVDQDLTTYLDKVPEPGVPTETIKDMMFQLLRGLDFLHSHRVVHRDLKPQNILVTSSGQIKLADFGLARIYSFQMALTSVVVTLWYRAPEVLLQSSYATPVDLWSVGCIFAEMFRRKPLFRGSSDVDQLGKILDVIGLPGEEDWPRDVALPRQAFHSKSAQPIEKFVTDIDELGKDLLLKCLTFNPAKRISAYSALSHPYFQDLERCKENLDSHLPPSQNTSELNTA
T7 sequence (P30281 whole entry partner): as the sequence (P30281 whole entry partner) above

SMILES	activity in the MDM2-Luc assay [1]	activity in the Rh-18 MDM2 RT-PCR gel-based confirmatory assay [2]	IC50 (CLK1(h)) [nM]	IC50 (CLK2(h)) [nM]	IC50 (CLK3(h)) [nM]	IC50 (CLK4(h)) [nM]	IC50 (CDK1/cyclinB(h)) [nM]	IC50 (CDK4/cyclinD3(h)) [nM]	IC50 (CDK6/cyclinD3(h)) [nM]	MDM2/Luc [1]	IC50 (CLK3(h); [3]) [nM]	luciferase response (Luc fold) in the MDM2-Luc reporter assay ([1]; compared with less potent CLK inhibitors of the series)	MDM2-Luc activity [1]
CC(C)n1ccc2c(Nc3cccc(Cl)c3)nc(NC3CCCCC3N)nc21 (racemic) [Compound 11, Racemic-N^2-Cis((2-Aminocyclohexyl)-N^4-(3-Chlorophenyl)-7-Isopropyl-7H-Pyrrolo[2,3-D]Pyrimidine-2,4-Diamine]	completely abrogated all activity												
CCn1cnc2c(Nc3cccc(Cl)c3)nc(NC3CCCCC3NC(C)=O)nc21 (racemic) [Compound 12, Racemic N-Cis(2-((6-((3-Chlorophenyl)Amino)-9-Ethyl-9H-Purin-2-Yl)Amino)Cyclohexyl) Acetamide]	completely abrogated all activity												
CC(C)[C@H](CO)Nc1nc(Nc2cc(N)cc(Cl)c2)c2ncn(C(C)C)c2n1 [Aminopurvalanol A, reference compound]		clear activity											
CCn1cnc2c(Nc3cccc(Cl)c3)nc(N[C@@H]3CCCC[C@H]3N)nc21 [Compound 5, N-((1R,2R)-2-Aminocyclohexyl)-V-(3-Chlorophenyl)-9-Ethyl-9H-Purine-2,6-Diamine]			868	498	> 1000	> 1000	546	> 1000	> 1000	Active			
CCn1cnc2c(Nc3cccc(Cl)c3)nc(N[C@H]3CCCC[C@@H]3N)nc21 [Compound 6, N^2-((1 S,2S)-2-Aminocyclohexyl)-V-(3-Chlorophenyl)-9-Ethyl-9H-Purine-2,6-Diamine]			371	190	> 1000	498	> 1000	> 1000	> 1000	Active			
CC(C)n1cnc2c(Nc3cccc(Cl)c3)nc(N[C@@H]3CCCC[C@H]3N)nc21 [Compound 7, N-((1R,2R)-2-Aminocyclohexyl)-N^6-(3-Chlorophenyl)-9-Isopropyl-9H-Purine-2,6-Diamine]			400	120		634	> 1000	> 1000	> 1000	Active	> 1000		
CC(C)n1cnc2c(Nc3cccc(Cl)c3)nc(N[C@H]3CCCC[C@H]3N)nc21 [Compound 10, N^2-((1S,2R)-2-Aminocyclohexyl)-N^6-(3-Chlorophenyl)-9-Isopropyl-9H-Purine-2,6-Diamine]			74	26		70	> 1000	> 1000	> 1000	Active	> 1000	stronger luciferase response	
COCCNc1nc(Nc2cccc(Cl)c2)c2ncn(C(C)C)c2n1 [Compound 13, N^6-(3-Chlorophenyl)-9-Isopropyl-N^2-(2-Methoxyethyl)-9H-Purine-2,6-Diamine]													dramatically reduced activity
CC(C)n1cnc2c(Nc3cc(N)cc(Cl)c3)nc(N[C@@H]3CCCC[C@@H]3N)nc21 [Compound 16, 1V-(3-Amino-5-Chlorophenyl)-N-((1R,2S)-2-Aminocyclohexyl)-9-Isopropyl-9H-Purine-2,6-Diamine]			17	6		25							
CC(C)n1cnc2c(Nc3cc(N)cc(Cl)c3)nc(N[C@H]3CCCC[C@H]3N)nc21 [Compound 17, N^6-(3-Amino-5-Chlorophenyl)-N^2-((1 S,2R)-2-Aminocyclohexyl)-9-Isopropyl-9H-Purine-2,6-Diamine]			21	26		28	> 1000	> 1000	> 1000		> 1000		
CC(=O)Nc1cc(Cl)cc(Nc2nc(N[C@@H]3CCCC[C@@H]3N)nc3c2ncn3C(C)C)c1 [Compound 18, N-(3-((2-(((1R,2S)-2-Aminocyclohexyl)Amino)-9-Isopropyl-9H-Purin-6-Yl)Amino)-5-Chlorophenyl)Acetamide]			19	7		30	> 1000	611	> 1000		> 1000		
CC(=O)Nc1cc(Cl)cc(Nc2nc(N[C@H]3CCCC[C@H]3N)nc3c2ncn3C(C)C)c1 [Compound 19, N-(3-((2-(((1S,2R)-2-Aminocyclohexyl)Amino)-9-Isopropyl-9H-Purin-6-Yl)Amino)-5-Chlorophenyl)Acetamide]			26	17		31	> 1000	> 1000	> 1000		> 1000		
CC(C)n1cnc2c(Nc3cc(N)cc(Cl)c3)nc(N[C@H]3CCCC[C@@H]3N)nc21 [Compound 20, 1V-(3-Amino-5-Chlorophenyl)-M-((1 S,2S)-2-Aminocyclohexyl)-9-Isopropyl-9H-Purine-2,6-Diamine]			56	14		124	> 1000	> 1000	> 1000		> 1000		
CC(C)n1cnc2c(Nc3cc(N)cc(Cl)c3)nc(N[C@@H]3CCCC[C@H]3N)nc21 [Compound 21, N^6-(3-Amino-5-Chlorophenyl)-N-((1R,2R)-2-Aminocyclohexyl)-9-Isopropyl-9H-Purine-2,6-Diamine]			274	163		648	> 1000	> 1000	> 1000		> 1000		
CC(C)n1cnc2c(Nc3cc(N)cc(Cl)c3)nc(N[C@H]3CCCNC3)nc21 [Compound 22, (S)—N^6-(3-Amino-5-Chlorophenyl)-9-Isopropyl-N^2-(Piperidin-3-Yl)-9H-Purine-2,6-Diamine]			31	26		61	> 1000	> 1000	> 1000		> 1000		
CC(C)n1cnc2c(Nc3cc(N)cc(Cl)c3)nc(N[C@@H]3CCCNC3)nc21 [Compound 23, (R)—N^6-(3-Amino-5-Chlorophenyl)-9-Isopropyl-N^2-(Piperidin-3-Yl)-9H-Purine-2,6-Diamine]			66	34		102	> 1000	> 1000	> 1000		> 1000		
CC(C)n1cnc2c(Nc3cc(N)cc(Cl)c3)nc(N[C@H]3CCNC3)nc21 [Compound 24, (S)—N^6-(3-Amino-5-Chlorophenyl)-9-Isopropyl-N^2-(Pyrrolidin-3-Yl)-9-Purine-2,6-Diamine]			71	28		77	> 1000	> 1000	> 1000		> 1000		
CC(C)n1cnc2c(Nc3cc(N)cc(Cl)c3)nc(N[C@@H]3CCNC3)nc21 [Compound 25, (R)—N^6-(3-Amino-5-Chlorophenyl)-9-Isopropyl-N^2-(Pyrrolidin-3-Yl)-9H-Purine-2,6-Diamine]			118	92		299	> 1000	> 1000	> 1000		> 1000		
CCOC(=O)c1c(/C(C#N)=C\N)c2ccc(Cl)c(Cl)c2n1C [KH-CB19, reference compound]													modest activity
O=C(Nc1cc(C(F)(F)F)ccc1N1CCCCC1)c1ccncc1 [SRPIN340, reference compound]	inactive												
CCc1cnn2c(NCc3ccc[n+]([O-])c3)cc(N3CCCC[C@H]3CCO)nc12 [dinaciclib, reference compound]	inactive												
